Reference: patent US20260216215A1, “COMPOSITIONS AND METHODS FOR TREATING OR PREVENTING PAIN OR OTHER DISORDERS” (priority 2022, published 2026)

Assays:
neuropathic pain = settings: purified compound; thermal and mechanical hyperalgesia and mechanical allodynia; cited from earlier work
menstrual pain = assay: Comparison of VAS scores for CBD only, CBG only, PEA only and combination vaginal suppositories (Example 2); format: in vivo, human; settings: vaginal suppository; for Magnitude of pain reduction from baseline: VAS points
Text: Specifically, the formulations were individually/separately administered, with each single formulation being administered on a separate day of the patient's menstrual period.
Comparison of visual analogue pain scores (VAS scores) for CBD only, CBG only, PEA only and CBD+CBG+PEA combinations delivered using vaginal suppositories.

[1] = tested on: inflammation in experimental rat model; settings: versus Diclofenac (100 mg/kg), p<0.05; cited from earlier work
[2] = cited from earlier work
chemical nociception = settings: not blocked by naloxone; cited from earlier work

| SMILES | Magnitude of pain reduction from baseline (menstrual pain) | Duration of effect (menstrual pain) [h] | Onset of effect (menstrual pain) [min] | VAS at max effect (menstrual pain) | other results |
| --- | --- | --- | --- | --- | --- |
| C=C(C)[C@@H]1CCC(C)=C[C@H]1c1c(O)cc(CCCCC)cc1O [CBD 50 mg, Cannabidiol] | 2 | 5 | 20 | 5 | Relief of neuropathic pain (neuropathic pain): partially relieve neuropathic pain |
| CCCCCc1cc(O)c(C/C=C(\C)CCC=C(C)C)c(O)c1 [CBG 50 mg, Cannabigerol] | 0 | – | – | 8 | – |
| COc1cc(CNC(=O)CCCC/C=C/C(C)C)ccc1O [CPF, capsaicin] | – | – | – | – | Anti-inflammatory effects [1]: comparable to diclofenac |
| CCCCCCCCCCCCCCCC(=O)NCCO [PEA 250 mg, N-Palmitoylethanolamide] | 2 | 6 | 30 | 5 | – |
| CC(C)=C1CC[C@@H](C)CC1=O [PUL, (R)-5-Methyl-2-(1-methylethylidine) cyclohexanone] | – | – | – | – | Miscibility with organic solvents ([2]; ethanol, diethyl ether and chloroform): miscible; Solubility in water ([2]; water): practically insolubile; Chemical nociception in first and second phase of the formalin test (chemical nociception): significantly inhibited |
